Data on 11 molecules can be found in patent US10538555B2, “Macrocyclic inhibitors of the PD-1/PD-L1 and CD80(B7-1)/PD-L1 protein/protein interactions” (BRISTOL-MYERS SQUIBB COMPANY, priority 2014, dated 2020).

pIC50: −log10 of the molar value. *1 amine or outer side, *2 acyl side, *3 side chain or, on linkers, in order; H or OH if unused. Where a SMILES comes first, the peptide text is derived from it. Bridges are numbered along the chain shown (N, C = ends). [ ]: non-standard residue; d: D form. ξ: configuration not given here. Trp(1-CH2COOH) = N[C@@H](Cc1cn(CC(=O)O)c2ccccc12)C(=O)O; Phe(3,4,5-F3) = N[C@@H](Cc1cc(F)c(F)c(F)c1)C(=O)O; NMePhe(4-Me) = CN[C@@H](Cc1ccc(C)cc1)C(=O)O; NMePhe(4-F) = CN[C@@H](Cc1ccc(F)cc1)C(=O)O; Morpholine(3S-CO) = O=C(O)[C@@H]1COCCN1; Phe(4-F) = N[C@@H](Cc1ccc(F)cc1)C(=O)O; d(cisHyp) = O=C(O)[C@H]1C[C@@H](O)CN1; Bta = N[C@@H](Cc1csc2ccccc12)C(=O)O; Hyp = O=C(O)[C@@H]1C[C@@H](O)CN1; NMeF = CN[C@@H](Cc1ccccc1)C(=O)O; X1 = O=C([C@H]1COCCN1[*:1])[*:2]; NMeNle = CCCC[C@H](NC)C(=O)O; dPip = O=C(O)[C@H]1CCCCN1; hSer = N[C@@H](CCO)C(=O)O; NMeA = CN[C@@H](C)C(=O)O; dThz = O=C(O)[C@H]1CSCN1; Dab = NCC[C@H](N)C(=O)O; Dap = NC[C@H](N)C(=O)O; ξC = NC(CS)C(=O)O

The target of the assay is T1, Human PD-L1/PD-1 (Homo sapiens, UniProt Q9NZQ7).
T1 construct: TVMV protease cleavage site (C); made in house; host or cells: HEK293T cells
As to the kind of experiment: HTRF Human PD-L1/PD-1 binding assay (PD-1-Ig/PD-L1-His). Conditions: PD-L1-His 10 nM, PD-1-Ig 20 nM; class symbol; read-out: HTRF Human PD-L1/PD-1 Binding Assay IC50 Range. The method, boiled down: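 Competition of macrocyclic peptides for PD-1/PD-L1 binding measured by HTRF in dPBS containing 0.1% BSA and 0.05% Tween-20. Compound and PD-L1-His (10 nM final) incubated 15 min before PD-1-Ig (20 nM final) and a further 15 min.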
For orientation: Time-resolved FRET reads energy transfer from a long-lived donor to a nearby acceptor.

T1 sequence (Q9NZQ7 with tags, fused parts or gaps): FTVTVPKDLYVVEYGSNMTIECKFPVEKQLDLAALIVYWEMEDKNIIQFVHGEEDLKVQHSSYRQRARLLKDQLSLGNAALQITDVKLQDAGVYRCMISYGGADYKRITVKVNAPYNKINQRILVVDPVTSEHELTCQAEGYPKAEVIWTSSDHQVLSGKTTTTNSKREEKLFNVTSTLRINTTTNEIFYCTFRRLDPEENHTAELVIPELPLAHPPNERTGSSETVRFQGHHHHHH

Turning to `CCCC[C@H]1C(=O)N2CCC[C@@H]2C(=O)N[C@@H](CC(=O)O)C(=O)N[C@@H](C)C(=O)N(C)[C@@H](Cc2ccccc2)C(=O)N[C@@H](Cc2ccc(O)cc2)C(=O)N2CSC[C@@H]2C(=O)N[C@@H](Cc2c[nH]c3ccccc23)C(=O)N[C@@H](Cc2ccc(O)cc2)C(=O)N[C@@H](CC(C)C)C(=O)N[C@H](C(=O)NCC(N)=O)CSCC(=O)N[C@@H](Cc2ccccc2)C(=O)N(C)[C@@H](Cc2ccccc2)C(=O)N1C` [Example 10088] ({CH2CO}-F[NMeF][NMeNle][dP]DA[NMeF]Y[dThz]WYLCG-NH2; thioether N-13), the pIC50 is 7.00 to 8.00.
Take `CCCC[C@H]1C(=O)N(C)[C@@H](CCCC)C(=O)N[C@@H](CC(C)C)C(=O)N[C@H](C(=O)NCC(N)=O)CSCC(=O)N[C@@H](Cc2ccc(O)cc2)C(=O)N(C)[C@@H](C)C(=O)N[C@@H](CC(N)=O)C(=O)N2CCC[C@H]2C(=O)N[C@@H](CN)C(=O)N[C@@H](CC(C)C)C(=O)N2C[C@H](O)C[C@H]2C(=O)N[C@@H](Cc2c[nH]c3ccccc23)C(=O)N[C@@H](CCCCN)C(=O)N[C@@H](Cc2cn(CC(=O)O)c3ccccc23)C(=O)N1C` [Example 6296] ({CH2CO}-Y[NMeA]NP[Dap]L[Hyp]WK[Trp(1-CH2COOH)][NMeNle][NMeNle]LCG-NH2; thioether N-14): the pIC50 was 8.00 to 9.00.
For `CCCC[C@H]1C(=O)N(C)[C@@H](CCCC)C(=O)N[C@@H](C)C(=O)N[C@H](C(=O)NCC(N)=O)CSCC(=O)N[C@@H](Cc2ccc(O)cc2)C(=O)N(C)[C@@H](C)C(=O)N[C@@H](CC(N)=O)C(=O)N2CCC[C@H]2C(=O)N[C@@H](Cc2cnc[nH]2)C(=O)N[C@@H](CCC(N)=O)C(=O)N2C[C@H](O)C[C@H]2C(=O)N[C@@H](Cc2c[nH]c3ccccc23)C(=O)N[C@@H](CO)C(=O)N[C@@H](Cc2csc3ccccc23)C(=O)N1C` [Example 1542] ({CH2CO}-Y[NMeA]NPHQ[Hyp]WS[Bta][NMeNle][NMeNle]ACG-NH2; thioether N-14), the pIC50 is 7.00 to 8.00.
The figure for `CCCC[C@H]1C(=O)N2CCC[C@@H]2C(=O)N2CCOC[C@H]2C(=O)N[C@@H](C(C)C)C(=O)N(C)[C@@H](Cc2ccccc2)C(=O)N[C@@H](Cc2ccc(O)cc2)C(=O)N2CCCC[C@@H]2C(=O)N[C@@H](Cc2c[nH]c3ccccc23)C(=O)N[C@@H](Cc2ccc(O)cc2)C(=O)N[C@@H](CC(C)C)C(=O)N[C@H](C(=O)NCC(N)=O)CSCC(=O)N[C@@H](Cc2cc(F)c(F)c(F)c2)C(=O)N(C)[C@@H](Cc2ccccc2)C(=O)N1C` [Example 3219] ({CH2CO}-[Phe(3,4,5-F3)][NMeF][NMeNle][dP][Morpholine(3S-CO)]V[NMeF]Y[dPip]WYLCG-NH2; thioether N-13) is 7.00 to 8.00.
As for `CCCC[C@H]1C(=O)N(C)[C@@H](CCCC)C(=O)N[C@@H](CCCNC(=N)N)C(=O)NC(C(=O)NCC(N)=O)CSCC(=O)N[C@@H](Cc2ccc(O)cc2)C(=O)N(C)[C@@H](C)C(=O)N[C@@H](CC(N)=O)C(=O)N2CCC[C@H]2C(=O)N[C@@H](CCO)C(=O)N[C@@H](CCO)C(=O)N2CCC[C@H]2C(=O)N[C@@H](Cc2c[nH]c3ccccc23)C(=O)N[C@@H](CO)C(=O)N[C@@H](Cc2c[nH]c3ccccc23)C(=O)N1C` (some centres unmarked) [Example 10021] ({CH2CO}-Y[NMeA]NP[hSer][hSer]PWSW[NMeNle][NMeNle]R[ξC]G-NH2; thioether N-14), the pIC50 is 7.00 to 8.00.
On to `CCCC[C@H]1C(=O)N2C[C@H](O)C[C@@H]2C(=O)N[C@@H](CC(=O)O)C(=O)N[C@@H](C(C)C)C(=O)N(C)[C@@H](Cc2ccccc2)C(=O)N[C@@H](CCC(=O)O)C(=O)N2CCOC[C@@H]2C(=O)N[C@@H](Cc2c[nH]c3ccccc23)C(=O)N[C@@H](Cc2ccc(O)cc2)C(=O)N[C@@H](CC(C)C)C(=O)N[C@H](C(=O)NCC(N)=O)CSCC(=O)N[C@@H](Cc2cc(F)c(F)c(F)c2)C(=O)N(C)[C@@H](Cc2ccc(F)cc2)C(=O)N1C` [Example 10594] ({CH2CO}-[Phe(3,4,5-F3)][NMePhe(4-F)][NMeNle][d(cisHyp)]DV[NMeF]E[X1]WYLCG-NH2; thioether N-13), for which the pIC50 is 8.00 to 9.00.
Take `CCCC[C@H]1C(=O)N(C)[C@@H](CCCC)C(=O)N[C@@H](CCC(=O)O)C(=O)NC(C(=O)NCC(N)=O)CSCC(=O)N[C@@H](Cc2ccc(O)cc2)C(=O)N(C)[C@@H](C)C(=O)N[C@@H](CC(N)=O)C(=O)N2CCC[C@H]2C(=O)N[C@@H](CC(N)=O)C(=O)N[C@@H](CC(C)C)C(=O)N2C[C@H](O)C[C@H]2C(=O)N[C@@H](Cc2c[nH]c3ccccc23)C(=O)N[C@@H](CCO)C(=O)N[C@@H](Cc2c[nH]c3ccccc23)C(=O)N1C` (some centres unmarked) [Example 9185] ({CH2CO}-Y[NMeA]NPNL[Hyp]W[hSer]W[NMeNle][NMeNle]E[ξC]G-NH2; thioether N-14): the pIC50 is 8.00 to 9.00.
Regarding `CCCC[C@H]1C(=O)N2CCC[C@@H]2C(=O)N[C@@H](CO)C(=O)N[C@@H](C(C)C)C(=O)N(C)[C@@H](Cc2ccccc2)C(=O)N[C@@H](Cc2ccc(O)cc2)C(=O)N2CSC[C@@H]2C(=O)N[C@@H](Cc2c[nH]c3ccccc23)C(=O)N[C@@H](Cc2ccc(O)cc2)C(=O)N[C@@H](CC(C)C)C(=O)N[C@H](C(=O)NCC(N)=O)CSCC(=O)N[C@@H](Cc2cc(F)c(F)c(F)c2)C(=O)N(C)[C@@H](Cc2ccccc2)C(=O)N1C` [Example 10089] ({CH2CO}-[Phe(3,4,5-F3)][NMeF][NMeNle][dP]SV[NMeF]Y[dThz]WYLCG-NH2; thioether N-13), the pIC50 was 8.00 to 9.00.
In the case of `CCCC[C@H]1C(=O)N2CCC[C@@H]2C(=O)N[C@@H](CC(=O)O)C(=O)N[C@@H](C(C)C)C(=O)N(C)[C@@H](Cc2ccc(C)cc2)C(=O)N[C@@H](CCN)C(=O)N2CCC[C@@H]2C(=O)N[C@@H](Cc2c[nH]c3ccccc23)C(=O)N[C@@H](Cc2ccc(O)cc2)C(=O)N[C@@H](CC(C)C)C(=O)N[C@H](C(=O)NCC(N)=O)CSCC(=O)N[C@@H](Cc2ccc(F)cc2)C(=O)N(C)[C@@H](Cc2ccccc2)C(=O)N1C` [Example 10113] ({CH2CO}-[Phe(4-F)][NMeF][NMeNle][dP]DV[NMePhe(4-Me)][Dab][dP]WYLCG-NH2; thioether N-13), the pIC50 is 6.00 to 7.00.
The figure for `CCCC[C@H]1C(=O)N(C)[C@@H](CCCC)C(=O)N[C@@H](C)C(=O)N[C@H](C(=O)NCC(N)=O)CSCC(=O)N[C@@H](Cc2ccc(O)cc2)C(=O)N(C)[C@@H](C)C(=O)N[C@@H](CCC(=O)O)C(=O)N2CCC[C@H]2C(=O)N[C@@H](Cc2cnc[nH]2)C(=O)N[C@@H](CCN)C(=O)N2C[C@H](O)C[C@H]2C(=O)N[C@@H](Cc2c[nH]c3ccccc23)C(=O)N[C@@H](CO)C(=O)N[C@@H](Cc2c[nH]c3ccccc23)C(=O)N1C` [Example 1248] ({CH2CO}-Y[NMeA]EPH[Dab][Hyp]WSW[NMeNle][NMeNle]ACG-NH2; thioether N-14) is 7.00 to 8.00; for `CCCC[C@H]1C(=O)N(C)[C@@H](CCCC)C(=O)N[C@@H](C)C(=O)N[C@H](C(=O)NCC(N)=O)CSCC(=O)N[C@@H](Cc2ccc(O)cc2)C(=O)N(C)[C@@H](C)C(=O)N[C@@H](CC(N)=O)C(=O)N2CCC[C@H]2C(=O)N[C@@H](CN)C(=O)N[C@@H](CC(C)C)C(=O)N2C[C@H](O)C[C@H]2C(=O)N[C@@H](Cc2c[nH]c3ccccc23)C(=O)N[C@@H](CCN)C(=O)N[C@@H](Cc2cn(CC(=O)O)c3ccccc23)C(=O)N1C` [Example 5166] ({CH2CO}-Y[NMeA]NP[Dap]L[Hyp]W[Dab][Trp(1-CH2COOH)][NMeNle][NMeNle]ACG-NH2; thioether N-14) it is 7.00 to 8.00.
